Test results from patent publication US20230265151A1, “GIP/GLP1 CO-AGONIST COMPOUNDS” (priority 2020, published 2023).

Key:
[1] = molecular target: T1, hGIPR (Homo sapiens, UniProt P48546); experiment: Functional cAMP formation (HTRF) in HEK-293 clonal cells expressing hGIPR, 0.1% bovine casein, without or with 1.0% human serum albumin; assay type: cell-based; conditions: for Emax: HEK293, percent of maximal response to GIP(1-42)NH2, 37° C., 0.1% bovine casein, arithmetic mean, read-out: hGIPR Emax, % ± SEM
T1 construct: expressed in transfected cells
T1 sequence (P48546 22-466): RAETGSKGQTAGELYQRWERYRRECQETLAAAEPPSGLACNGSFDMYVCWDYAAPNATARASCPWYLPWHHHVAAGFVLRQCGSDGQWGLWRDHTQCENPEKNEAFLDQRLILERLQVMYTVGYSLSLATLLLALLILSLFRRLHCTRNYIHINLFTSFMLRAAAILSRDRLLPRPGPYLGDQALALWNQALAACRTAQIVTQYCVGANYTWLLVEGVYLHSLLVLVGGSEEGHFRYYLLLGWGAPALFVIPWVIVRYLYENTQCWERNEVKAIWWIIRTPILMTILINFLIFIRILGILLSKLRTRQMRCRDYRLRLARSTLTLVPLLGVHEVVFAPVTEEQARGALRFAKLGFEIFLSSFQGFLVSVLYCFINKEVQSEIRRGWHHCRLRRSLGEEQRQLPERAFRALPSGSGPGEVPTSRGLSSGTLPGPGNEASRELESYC
In short: (§1)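 Cells were stimulated with peptide for 30 min at 37° C, then lysed in buffer carrying cAMP-d2 and anti-cAMP Eu3+-cryptate for a competitive HTRF read after at least 60 min at room temperature. The 665/620 nm ratio was converted to nM cAMP against a standard curve.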

[2] = molecular target: T2, hGCGR (Homo sapiens, UniProt P47871); experiment: Functional cAMP formation (HTRF) in HEK-293 clonal cells expressing hGCGR, 0.1% bovine casein, without or with 1.0% human serum albumin; assay type: cell-based; conditions: cAMP, incubated at 37° C., 0.1% bovine casein (no human serum albumin); geometric mean; read-out: hGCGR EC50, nM (SEM, n)
T2 construct: expressed in transfected cells
T2 sequence (P47871 26-477): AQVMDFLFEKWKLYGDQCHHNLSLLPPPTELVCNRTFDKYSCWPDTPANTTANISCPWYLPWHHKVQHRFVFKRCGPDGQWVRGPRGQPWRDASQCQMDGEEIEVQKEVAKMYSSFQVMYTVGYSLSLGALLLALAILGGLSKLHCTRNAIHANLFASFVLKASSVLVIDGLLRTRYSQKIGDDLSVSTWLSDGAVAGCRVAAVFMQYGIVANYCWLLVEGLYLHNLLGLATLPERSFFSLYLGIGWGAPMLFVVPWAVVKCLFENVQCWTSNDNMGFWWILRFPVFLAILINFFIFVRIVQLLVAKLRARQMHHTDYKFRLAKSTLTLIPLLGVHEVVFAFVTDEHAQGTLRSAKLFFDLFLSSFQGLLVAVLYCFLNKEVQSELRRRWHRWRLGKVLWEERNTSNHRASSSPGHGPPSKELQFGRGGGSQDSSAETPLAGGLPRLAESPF
In short: as §1

Row | SMILES | Emax [1] [%] | EC50 [2] [nM] | EC50 ([1]; cAMP, incubated at 37° C., 0.1% bovine casein (no human serum albumin), geometric mean, read-out: hGIPR EC50, nM (SEM, n)) [nM]
1 | CC[C@H](C)[C@H](NC(=O)[C@H](CC(C)C)NC(=O)[C@](C)(Cc1ccc(O)cc1)NC(=O)[C@@H](CCC(=O)O)NC(=O)[C@@H](NC(=O)[C@H](Cc1ccccc1)NC(=O)[C@H](CCC(=O)O)NC(=O)[C@](C)(Cc1ccccc1)NC(=O)[C@H](CCC(N)=O)NC(=O)[C@H](C)NC(=O)[C@H](CCCCNC(=O)COCCOCCNC(=O)COCCOCCNC(=O)CC[C@H](NC(=O)CCCCCCCCCCCCC(=O)O)C(=O)O)NC(=O)[C@H](CCCN)NC(=O)[C@H](CC(=O)O)NC(=O)[C@H](CC(C)C)NC(=O)[C@](C)(CC(C)C)NC(=O)[C@@H](NC(=O)[C@H](CO)NC(=O)[C@H](Cc1ccncc1)NC(=O)[C@H](CC(=O)O)NC(=O)[C@H](CO)NC(=O)[C@@H](NC(=O)[C@](C)(Cc1ccccc1F)NC(=O)[C@@H](NC(=O)CNC(=O)[C@H](CCC(=O)O)NC(=O)C(C)(C)NC(=O)[C@@H](N)Cc1ccc(O)cc1)[C@@H](C)O)[C@@H](C)O)[C@@H](C)CC)[C@@H](C)CC)C(=O)N[C@@H](CCC(=O)O)C(=O)NCC(=O)NCC(=O)N[C@@H](CCCCNC(=O)COCCOCCNC(=O)COCCOCCNC(=O)CC[C@H](NC(=O)CCCCCCCCCCCCC(=O)O)C(=O)O)C(=O)N[C@@H](CO)C(=O)N[C@@H](CO)C(=O)NCC(=O)N[C@@H](C)C(=O)N1CCC[C@H]1C(=O)N1CCC[C@H]1C(=O)N1CCC[C@H]1C(=O)N[C@@H](CO)C(N)=O [Example 169] | 96.1 | > 9950 | –
2 | CC[C@H](C)[C@H](NC(=O)[C@H](CC(C)C)NC(=O)[C@](C)(Cc1ccc(O)cc1)NC(=O)[C@@H](CCC(=O)O)NC(=O)[C@@H](NC(=O)[C@H](Cc1ccccc1)NC(=O)[C@H](CCC(=O)O)NC(=O)C1(NC(=O)[C@H](CCC(N)=O)NC(=O)[C@H](C)NC(=O)[C@H](CCCCNC(=O)COCCOCCNC(=O)COCCOCCNC(=O)CC[C@H](NC(=O)CCCCCCCCCCCCC(=O)O)C(=O)O)NC(=O)[C@H](CCCN)NC(=O)[C@H](CC(=O)O)NC(=O)[C@H](CC(C)C)NC(=O)[C@](C)(CC(C)C)NC(=O)[C@@H](NC(=O)[C@H](CO)NC(=O)[C@H](Cc2ccncc2)NC(=O)[C@H](CC(=O)O)NC(=O)[C@H](CO)NC(=O)[C@@H](NC(=O)[C@](C)(Cc2ccccc2F)NC(=O)[C@@H](NC(=O)CNC(=O)[C@H](CCC(=O)O)NC(=O)C(C)(C)NC(=O)[C@@H](N)Cc2ccc(O)cc2)[C@@H](C)O)[C@@H](C)O)[C@@H](C)CC)CCCCC1)[C@@H](C)CC)C(=O)N[C@@H](CCC(=O)O)C(=O)NCC(=O)NCC(=O)N[C@@H](CCCCNC(=O)COCCOCCNC(=O)COCCOCCNC(=O)CC[C@H](NC(=O)CCCCCCCCCCCCC(=O)O)C(=O)O)C(=O)N[C@@H](CO)C(=O)N[C@@H](CO)C(=O)NCC(=O)N[C@@H](C)C(=O)N1CCC[C@H]1C(=O)N1CCC[C@H]1C(=O)N1CCC[C@H]1C(=O)N[C@@H](CO)C(N)=O [Example 171] | 95.3 | > 9950 | 0.0389
3 | CC[C@H](C)[C@H](NC(=O)[C@H](CC(C)C)NC(=O)[C@](C)(Cc1ccc(O)cc1)NC(=O)[C@@H](CCC(=O)O)NC(=O)[C@@H](NC(=O)[C@H](Cc1ccccc1)NC(=O)[C@H](CCC(=O)O)NC(=O)C(C)(C)NC(=O)[C@H](CCC(N)=O)NC(=O)[C@H](C)NC(=O)[C@H](CCCCNC(=O)COCCOCCNC(=O)COCCOCCNC(=O)CC[C@H](NC(=O)CCCc1ccc(C(C)(C)C)cc1)C(=O)O)NC(=O)[C@H](CCCN)NC(=O)[C@H](CC(=O)O)NC(=O)[C@H](CC(C)C)NC(=O)[C@](C)(CC(C)C)NC(=O)[C@@H](NC(=O)C(C)(C)NC(=O)[C@@H](NC(=O)[C@H](CC(=O)O)NC(=O)[C@H](CO)NC(=O)[C@@H](NC(=O)[C@](C)(Cc1ccccc1F)NC(=O)[C@@H](NC(=O)CNC(=O)[C@H](CCC(=O)O)NC(=O)C(C)(C)NC(=O)[C@@H](N)Cc1ccc(O)cc1)[C@@H](C)O)[C@@H](C)O)C(C)C)[C@@H](C)CC)[C@@H](C)CC)C(=O)N[C@@H](CCC(=O)O)C(=O)NCC(=O)NCC(=O)N[C@@H](CCCCNC(=O)COCCOCCNC(=O)COCCOCCNC(=O)CC[C@H](NC(=O)CCCc1ccc(C(C)(C)C)cc1)C(=O)O)C(=O)N[C@@H](CO)C(=O)N[C@@H](CO)C(=O)NCC(=O)N[C@@H](C)C(=O)N1CCC[C@H]1C(=O)N1CCC[C@H]1C(=O)N1CCC[C@H]1C(=O)N[C@@H](CO)C(N)=O [Example 177] | 113 | > 9950 | –
